Assay results from US20210379046A1, “Methods of Treating Diseases Using Kinase Modulators” (Memorial Sloan Kettering Cancer Center, priority 2018, published 2021).
Where “and” joins values, the source holds several entries; their conditions need not be identical. Identical values can stand only once. Entries after “also recorded” stand apart in the source; their conditions may differ.

Experiments:
[1] = system: TPC1 cells; assay: Flow cytometry of cell surface HLA and checkpoint ligands on TPC1 cells; assay type: cell-based, human
Experimental: If adherent cells, they were seeded one day before treatment.

[2] = system: TPC1 tumors; assay: TPC1 subcutaneous tumors in NRG mice, tumor HLA and PD-L1 by flow cytometry; assay type: in vivo; details: 7 days
Experimental: Female NSG (NOD.Cg-Prkdc^scidIl2rg^tm1Wj1/SzJ) and NRG (NOD.Cg-Rag1^tm1MomIl2rg^tm1Wj1/SzJ) mice were purchased from the Jackson Laboratory or MSKCC breeding facility at 5-10 weeks old. For RET and ALK experiments, 2.5-6×10^6 tumor cells were subcutaneously injected into the flank of mice and when tumors were palpable, mice were treated daily with drug or vehicles through oral gavage. At day 7, tumors were harvested and flow cytometry was run to determine effect of inhibitors on HLA and PD-L1 on the tumor cells.
To determine if the inhibitors produced similar therapeutic improvements in vivo, mice bearing the TPC1 tumor were treated with RET inhibitors. The highly immunodeficient NRG (NOD-Rag1null IL2rgnull) mice were subcutaneously injected with 2.5×10^6 luciferase tagged TPC1 cells in their right flank. […] Afterwards, cells were immediately harvested and stained with antibodies against HLA-A*02:01 and HLA-ABC.
All animal experiments were conducted in accordance with and the approval of the MSKCC IACUC (Institutional Animal Care and Use Committee) protocols. Female NSG (NOD. Cg-Prkdc^scidIl2rg^tm1Wj1/SzJ) and NRG (NOD.Cg-Rag1^tm1MomIl2rg^tm1Wj1/SzJ) mice were purchased from the Jackson Laboratory at 5-10 weeks old. For experiments in vivo with RET and ALK, 2.5-6×10^6 tumor cells in PBS were subcutaneously injected into the flank of mice. […]

With `CCN1CCN(Cc2ccc(NC(=O)Nc3ccc(Oc4cc(NC)ncn4)cc3)cc2C(F)(F)F)CC1` [AST487] the “HLA levels increase without STAT3 knockdown” value ([1]; TPC1, 10 nM AST487, 72 hrs) was 3 fold, the “increase in surface HLA-A,B,C levels” value ([1]; TPC1, 72 hours) was 3- to 4 fold and 3 to 4 fold and the “surface HLA-A*02:01” value ([1]; TPC1, 72 hrs) was “dose dependent increase in surface HLA-A*02”. For the same compound, the “surface HLA-A,B,C” value ([1]; TPC1, 72 hrs) was “Surface HLA-A,B,C increase”, the “surface HLA-E levels” value ([1]; TPC1, 72 hrs) was “did not change” and the “HLA upregulation, AST487 compared with trametinib at the same concentrations” value ([1]; TPC1, 72 hrs, normalized to DMSO) was “more potent and increased HLA levels at lower doses of drug; also recorded: higher levels of HLA upregulation”. For the same compound, the “HLA-A02 (BB7-FITC) surface level” value ([1]; TPC1, AST 487 10 nM, 72 hours) was “led to upregulation of HLA”, the “HLA levels increase after siSTAT3 pretreatment” value ([1]; TPC1, siSTAT3 24 hrs before 10 nM AST487, 72 hrs, HLA-A*02) was about 6 folds and the “increase in surface HLA, control group (pBabe)” value ([1]; TPC1 pBabe, 72 hours) was about 3 fold. The “increase in surface HLA, BRAF V600E cells” value ([1]; TPC1 with introduced BRAF V600E mutation) was “about 2 fold”, the “tumor cell surface HLA-A*02 and HLA-A,B,C in vivo” value ([2]; 10 or 35 mg/kg once daily oral gavage) was “Dose related increase in HLA levels; also recorded: Dose-related increases in all HLA class I levels; also recorded: increased in a dose related manner” and the “tumor PD-L1 levels in vivo” value ([2]; oral gavage) was “no increase in PD-L1 was seen; also recorded: PD-L1 levels did not change in vivo”.
